From US20240287081A1, “PERFLUOROALKANE SUBSTITUTED PYRAZOLO[3,4-D]PYRIMIDIN AND PYRROLO[2,3-D]PYRIMIDIN COMPOUNDS AND USES THEREOF” (ICAHN SCHOOL OF MEDICINE AT MOUNT SINAI, priority 2021, published 2024)
“Also recorded” adds a separate entry of the source. Values belong to the compound of their own block, whether it stands above or below them.

Assays:
RET (WT and M918T) = test: NanoBRET cell based target engagement assay; conditions: RET-Nluc in HEK 293T cells; for cellular IC50 against RET, ranking in words: pyrazolo- and pyrrolopyrimidine series
Protocol: Assays were completed in duplicate. […] FIG. 8D is a graph of the cell-based target engagement for the indicated compounds against wild-type and M918T RET. IC50 values were determined based on 8-point titration curves of free ligand. Competition assays were completed in technical triplicate against full-length human RET-Nluc expressed in 293T cells, complexed with an active-site fluorescent tracer.
In this assay, a bioluminescence resonance energy transfer (BRET) signal is generated between nanoLuciferase tagged RET (expressed in HEK 293T cells) and an active-site based fluorescent tracer. […] Using this assay, in vivo binding was determined for a series of compounds against mutant (M918T) and wild-type RET (FIG. 8D).

ptc>dRet^M955T flies = test: Fly rescue assay (Drosophila MTC model ptc>dRet^M955T); type: in vivo; conditions: compound in fly food; for rescue (percent viability of adult flies, adults/pupae×100): 13 d at 25° C.
Protocol: Kinase-mutated fly stocks were obtained from Bloomington Drosophila Stock Center (BDSC; Bloomington, IN). The active mutant form of Drosophila Ret (dRet^955T) carries an M955T mutation corresponding to the M918T mutation commonly reported for multiple endocrine neoplasia (MEN) type 2B patients12,14,16,34. The ptc-gal4, UAS-GFP;UAS-dRet^M955T/SM5tub-gal80-TM6B transgenic flies were prepared according to standard protocols and crossed with non-transgenic w-flies (BDSC) to generate ptc-gal4, UAS-GFP; UAS-dRet^M955T(ptc>dRet^M955T) flies for chemical screening.
All drugs were synthesized in-house. All compounds were dissolved in DMSO (Sigma-Aldrich; St. Louis, MO) and mixed with semi-defined fly medium (BDSC) to make drug food (0.1% final DMSO concentration). For drug screening, ptc>dRet^M955T embryos were raised until adulthood on drug food for 13 d at 25° C. The number of empty pupal cases (i.e., adults) ? that of total pupal cases (P) to determine % viability. Fly randomization was used throughout the assays.
In this model, compounds are assessed based on their ability to suppress oncogenic Ret^M955T-induced tumors, which can be quantified as ‘rescue’ from lethality. […] The baseline viability of ptc>Ret^1955T flies was calibrated to zero, which creates a high bar for rescue but also reduces false-positive hits. Hundreds of flies are tested per condition (typical n values are […] administered through fly food.

[1] = tested on: HCC tumor organoids, SR (sorafenib resistant); test: 3D HCC tumor organoid viability, SR model; type: cell-based; conditions: 5.0 μM, viability three days post drug administration
Protocol: (§1) For assays in HCC tumor organoids, 96 well plates were first coated with a 50:50 solution of basal media:Matrigel ([…]), which polymerized for 15 minutes at 37° C. Tumor organoids were taken out of Matrigel, broken, and washed. Tumor organoids were seeded at 1,000 cells per well and were treated the following day with single doses of drugs in technical triplicate. Final DMSO concentrations were kept below 0.5%. Cell viability was measured three days post drug administration with either luminescence from CellTiter-Glo or absorbance at 560 and 590 nm from resazurin. Viability data was analyzed by normalizing individual drug-treated well values to DMSO-treated wells (BC=B-Catenin; SR=sorafenib resistant). Results of 3D HCC cell line data for pyrazolo- and pyrrolopyrimidine compounds at 0.5 μm (FIGS. 22A-F), 0.05 μm (FIGS. 23A-F), and 5.0 μm (FIGS. 24A-F) were obtained. […] In the BC model, at 5.0 μM, the top ten compounds were: APS-8-100-4, APS-8-52-3, APS-8-51-4, APS-7-25-2, APS-8-100-3, APS-8-51-3, APS-8-50-4, APS-8-52-4, and APS-7-38. In the SR model, at 5.0 μM, the top ten compounds were: APS-8-51-3, APS-8-50-4, APS-8-51-4, APS-8-52-3, APS-8-50-3, APS-7-52-2, APS-8-52-4, APS-7-52-1, and APS-8-100-4.

[2] = tested on: HCC tumor organoids, BC (B-Catenin); test: 3D HCC tumor organoid viability, BC model; type: cell-based; conditions: 5.0 μM, viability three days post drug administration
Protocol: as §1

[3] = tested on: panel of 468 purified human kinases; test: In vitro kinase percent inhibition, panel of 468 kinases (DiscoverX); type: binding; conditions: 1 μM; for binding to wild-type RET and RET^M918T, in words: kinase panel; for binding profile / selectivity across the kinome, in words: panel of 468 kinases
Protocol: Compounds were assayed against a panel of 468 purified human kinases (DiscoverX) to measure percentage inhibition values and derive kinome profiles (FIGS. 3B-3C). All compounds were screened at 1 μM, using two experimental replicates to determine percent inhibition values. Detailed procedures for kinase reactions and assay formats are described at http://www.discoverx.com. Raw data sets for individual compounds were filtered based on the variance of experimental replicates (cutoff=average variance+standard deviation).

cellular IC50 against RET, ranking in words (RET (WT and M918T)): highest IC50 values
Structure (SMILES): CC(C)n1nc(-c2ccc(NC(=O)Nc3cccc(C(F)(C(F)(F)F)C(F)(F)C(F)(F)F)c3)cc2)c2c(N)ncnc21 (stereo not drawn) [APS-8-56-3, 1-(4-(4-Amino-1-isopropyl-1H-pyrazolo[3,4-d]pyrimidin-3-yl)phenyl)-3-(3-(perfluorobutan-2-yl)phenyl)urea 2,2,2-trifluoroacetate]

Structure (SMILES): CC(C)n1nc(-c2ccc(NC(=O)Nc3cc(C(F)(F)C(F)(F)F)ccc3F)cc2)c2c(N)ncnc21 [APS-5-86-2, 1-(4-(4-Amino-1-isopropyl-1H-pyrazolo[3,4-d]pyrimidin-3-yl)phenyl)-3-(2-fluoro-5-(perfluoroethyl)phenyl)urea]
rescue (percent viability of adult flies, adults/pupae×100) (ptc>dRet^M955T flies; baseline viability 0%): 92%
cellular IC50 wild-type RET versus M918T mutant, in words (RET (WT and M918T)): not observed

Structure (SMILES): CC(C)n1nc(-c2ccc(NC(=O)Nc3cccc(C(F)(F)C(F)(F)C(F)(F)F)c3)cc2)c2c(N)ncnc21.O=C(O)C(F)(F)F [APS-7-52-1, 1-(4-(4-Amino-1-isopropyl-1H-pyrazolo[3,4-d]pyrimidin-3-yl)phenyl)-3-(3-(perfluoropropyl)phenyl)urea 2,2,2-trifluoroacetate]
ranking by inhibition of cell proliferation, SR model [1]: top ten

Structure (SMILES): CO[C@]1(C(=O)N[C@@H](C)c2ccc(-n3cc(F)cn3)nc2)CC[C@H](c2nc(C)cc(Nc3cc(C)[nH]n3)n2)CC1 [Blu667, reference compound]
cellular IC50 wild-type RET versus M918T mutant, in words (RET (WT and M918T)): slightly lower IC50 values towards wild-type RET over the M918T mutant

Structure (SMILES): CC(C)n1nc(-c2ccc(NC(=O)Nc3ccc(C(F)(F)C(F)(F)F)cc3)cc2)c2c(N)ncnc21 [APS-8-100-3, 1-(4-(4-Amino-1-isopropyl-1H-pyrazolo[3,4-d]pyrimidin-3-yl)phenyl)-3-(4-(perfluoroethyl)phenyl)urea]
rescue activity in the fly model, in words (ptc>dRet^M955T flies): exceptional in vivo activity
rescue (percent viability of adult flies, adults/pupae×100) (ptc>dRet^M955T flies; baseline viability 0%): 100%
ranking by inhibition of cell proliferation, BC model [2]: top ten
cellular IC50 against RET, ranking in words (RET (WT and M918T)): lowest IC50 values among the para-substituted compounds tested

Structure (SMILES): CC(C)n1cc(-c2ccc(NC(=O)Nc3ccc(C(F)(C(F)(F)F)C(F)(F)F)cc3)cc2)c2c(N)ncnc21 [APS-8-50-4, 1-(4-(4-Amino-7-isopropyl-7H-pyrrolo[2,3-d]pyrimidin-5-yl)phenyl)-3-(4-(perfluoropropan-2-yl)phenyl)urea]
ranking by inhibition of cell proliferation, BC model [2]: top ten
ranking by inhibition of cell proliferation, SR model [1]: top ten

Structure (SMILES): CNC(=O)c1cc(Oc2ccc(NC(=O)Nc3ccc(C(C)(F)C(C)(C)C)cc3)cc2)ccn1 (stereo not drawn) [compound 44]
rescue (percent viability of adult flies, adults/pupae×100) (ptc>dRet^M955T flies; baseline viability 0%): 55%

Structure (SMILES): CC(C)n1cc(-c2ccc(NC(=O)Nc3ccc(C(F)(F)C(F)(F)C(F)(F)C(F)(F)F)cc3)cc2)c2c(N)ncnc21 [APS-8-52-4, 1-(4-(4-Amino-7-isopropyl-7H-pyrrolo[2,3-d]pyrimidin-5-yl)phenyl)-3-(4-(perfluorobutyl)phenyl)urea]
ranking by inhibition of cell proliferation, BC model [2]: top ten
ranking by inhibition of cell proliferation, SR model [1]: top ten

Structure (SMILES): COc1ccc(CN2C3CC2CN(c2ccc(-c4cc(OCC(C)(C)O)cn5ncc(C#N)c45)cn2)C3)cn1 [Loxo292, reference compound]
cellular IC50 wild-type RET versus M918T mutant, in words (RET (WT and M918T)): slightly lower IC50 values towards wild-type RET over the M918T mutant

Structure (SMILES): CC(C)n1nc(-c2ccc(NC(=O)Nc3ccc(C(F)(F)C(F)(F)C(F)(F)C(F)(F)F)cc3)cc2)c2c(N)ncnc21 [APS-8-52-3, 1-(4-(4-Amino-1-isopropyl-1H-pyrazolo[3,4-d]pyrimidin-3-yl)phenyl)-3-(4-(perfluorobutyl)phenyl)urea]
ranking by inhibition of cell proliferation, BC model [2]: top ten
ranking by inhibition of cell proliferation, SR model [1]: top ten

Structure (SMILES): CC(C)n1nc(-c2ccc(NC(=O)Nc3ccc(C(F)(C(F)(F)F)C(F)(F)C(F)(F)F)cc3)cc2)c2c(N)ncnc21 (stereo not drawn) [APS-8-6-2, 1-(4-(4-Amino-1-isopropyl-1H-pyrazolo[3,4-d]pyrimidin-3-yl)phenyl)-3-(4-(perfluorobutan-2-yl)phenyl)urea]
rescue activity in the fly model, in words (ptc>dRet^M955T flies): one of the highest rescues in the MTC fly assay; also recorded: exceptional in vivo activity
rescue (percent viability of adult flies, adults/pupae×100) (ptc>dRet^M955T flies; baseline viability 0%, listed as 65): 99%
binding to wild-type RET and RET^M918T, in words [3]: more potent than 43 on wild-type and mutant RET
binding to wild-type RET and RET^M918T, in words ([3]; listed as 8-6-2): highly potent on both wild-type and RET^M918T
binding profile / selectivity across the kinome, in words [3]: generally promiscuous KI
binding profile / selectivity across the kinome, in words ([3]; listed as 8-6-2): overall selectivity profile in between 4-9-8 and 8-82-1
cellular IC50 against RET, ranking in words (RET (WT and M918T)): highest IC50 values

Structure (SMILES): CC(C)n1cc(-c2ccc(NC(=O)Nc3cc(C(F)(C(F)(F)F)C(F)(F)F)ccc3F)cc2)c2c(N)ncnc21 [APS-7-25-2, 1-(4-(4-Amino-7-isopropyl-7H-pyrrolo[2,3-d]pyrimidin-5-yl)phenyl)-3-(2-fluoro-5-(perfluoropropan-2-yl)phenyl)urea]
ranking by inhibition of cell proliferation, BC model [2]: top ten

Structure (SMILES): CC(C)n1cc(-c2ccc(NC(=O)Nc3ccc(C(F)(C(F)(F)F)C(F)(F)C(F)(F)F)cc3)cc2)c2c(N)ncnc21 (stereo not drawn) [APS-8-82-2, 1-(4-(4-Amino-7-isopropyl-7H-pyrrolo[2,3-d]pyrimidin-5-yl)phenyl)-3-(4-(perfluorobutan-2-yl)phenyl)urea 2,2,2-trifluoroacetate]
rescue activity in the fly model, in words (ptc>dRet^M955T flies): exceptional in vivo activity
rescue (percent viability of adult flies, adults/pupae×100) (ptc>dRet^M955T flies; baseline viability 0%, 2,2,2-trifluoroacetate): 100%
cellular IC50 against RET, ranking in words (RET (WT and M918T)): highest IC50 values

Structure (SMILES): CC(C)n1cc(-c2ccc(NC(=O)Nc3cc(C(F)(F)C(F)(F)F)ccc3F)cc2)c2c(N)ncnc21 [APS-7-38, 1-(4-(4-Amino-7-isopropyl-7H-pyrrolo[2,3-d]pyrimidin-5-yl)phenyl)-3-(2-fluoro-5-(perfluoroethyl)phenyl)urea]
ranking by inhibition of cell proliferation, BC model [2]: top ten

Structure (SMILES): CC(C)n1cc(-c2ccc(NC(=O)Nc3cccc(C(F)(F)C(F)(F)C(F)(F)F)c3)cc2)c2c(N)ncnc21.O=C(O)C(F)(F)F [APS-7-52-2, 1-(4-(4-Amino-7-isopropyl-7H-pyrrolo[2,3-d]pyrimidin-5-yl)phenyl)-3-(3-(perfluoropropyl)phenyl)urea 2,2,2-trifluoroacetate]
ranking by inhibition of cell proliferation, SR model [1]: top ten

Structure (SMILES): CC(C)n1nc(-c2ccc(NC(=O)Nc3ccc(C(F)(C(F)(F)F)C(F)(F)F)cc3)cc2)c2c(N)ncnc21 [APS-8-50-3, 1-(4-(4-Amino-1-isopropyl-1H-pyrazolo[3,4-d]pyrimidin-3-yl)phenyl)-3-(4-(perfluoropropan-2-yl)phenyl)urea]
ranking by inhibition of cell proliferation, SR model [1]: top ten

Structure (SMILES): CC(C)n1nc(-c2ccc(NC(=O)Nc3cccc(C(F)(F)C(F)(F)C(F)(F)C(F)(F)F)c3)cc2)c2c(N)ncnc21 [APS-7-46-2, 1-(4-(4-Amino-1-isopropyl-1H-pyrazolo[3,4-d]pyrimidin-3-yl)phenyl)-3-(3-(perfluorobutyl)phenyl)urea]
rescue (percent viability of adult flies, adults/pupae×100) (ptc>dRet^M955T flies; baseline viability 0%): over 80%

Structure (SMILES): CNC(=O)c1cc(Oc2ccc(NC(=O)Nc3ccc(Cl)c(C(F)(F)F)c3)c(F)c2)ccn1 [regorafenib, reference compound]
cellular IC50 wild-type RET versus M918T mutant, in words (RET (WT and M918T)): slightly lower IC50 values towards wild-type RET over the M918T mutant
